# Legend:
# [1] = molecular target: T1, rat liver proteins (Rattus norvegicus, UniProt P55260); assay: Proteome analysis (2-D gel electrophoresis) of liver of rats fed antilipemic drugs at low and high dose for 7 days (Examples 1-3); format: in vivo; settings: rat liver
# T1 construct: The 2DGE protein pattern of rat liver illustrates over 1000 Coomassie Blue stained protein spots; from tissue; host or cells: liver (left apical lobe) of drug-fed F344 rats
# T1 sequence (P55260 1-319): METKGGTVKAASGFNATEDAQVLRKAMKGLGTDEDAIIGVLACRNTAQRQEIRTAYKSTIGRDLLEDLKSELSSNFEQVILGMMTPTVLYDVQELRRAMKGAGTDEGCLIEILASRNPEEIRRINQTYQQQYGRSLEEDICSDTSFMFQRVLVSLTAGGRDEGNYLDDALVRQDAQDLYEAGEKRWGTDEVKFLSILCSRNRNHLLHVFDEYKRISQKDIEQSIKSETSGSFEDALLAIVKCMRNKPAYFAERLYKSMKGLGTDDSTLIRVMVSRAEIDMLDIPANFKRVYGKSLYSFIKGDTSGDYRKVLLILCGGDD
# Procedure: (§1) The animals were guillotined after CO2 asphyxiation on the day following the last treatment. Liver samples (150 mg of the left apical lobe) were removed and flash frozen in liquid nitrogen and kept at −80° C. until analysis.
# (§2) The homogenates were centrifuged at 420,000×g at 22° C. for 30 min. […] The supernatant was removed, divided into four aliquots and stored at −80° C. until analysis.
# (§3) An Angelique™ computer-controlled gradient-casting system (Large Scale Biology Corporation, Rockville, Md.) was used to prepare the second-dimension SDS slab gels. […] Second-dimensional slab gels were run overnight at 160 V in cooled DALT tanks (10° C.) with buffer circulation and were taken out when the tracking dye reached the bottom of the gel. Following SDS electrophoresis, the slab gels were fixed overnight in 1.5 liters/10 gels of 50% ethanol/3% phosphoric acid and then washed three times for 30 min in 1.5 liters/10 gels of cold DI water. They were transferred to 1.5 liters/10 gels of 34% methanol/17% ammonium sulfate/3% phosphoric acid for one hour, and after the addition of one gram powdered Coomassie Blue G-250 the gels were stained for three days to achieve equilibrium intensity.
# (§4) Groupwise statistical comparisons were made to search for treatment-related protein abundance changes.
# (§5) For these experiments, only pharmaceutical grade compounds were used with the trademark identifying the source. […] In each experiment, the low dose was equivalent to the daily human therapeutic dose.
# [2] = tested on: rat liver proteins; assay: as above; format: in vivo
# Procedure: as §1, §2, §3, §4, §5
# [3] = molecular target: T2, rat liver proteins (Rattus norvegicus, UniProt P31044); assay: as above; format: in vivo; settings: rat liver
# T2 construct: The 2DGE protein pattern of rat liver illustrates over 1000 Coomassie Blue stained protein spots; from tissue; host or cells: liver (left apical lobe) of drug-fed F344 rats
# T2 sequence (P31044 1-187): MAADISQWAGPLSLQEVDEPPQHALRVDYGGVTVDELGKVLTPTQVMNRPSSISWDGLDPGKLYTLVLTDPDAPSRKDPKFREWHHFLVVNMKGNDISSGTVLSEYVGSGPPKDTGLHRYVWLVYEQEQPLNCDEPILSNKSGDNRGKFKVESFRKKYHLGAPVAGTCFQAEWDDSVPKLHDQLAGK
# Procedure: as §1, §2, §3, §4, §5
# [4] = molecular target: T3, rat liver proteins (Rattus norvegicus, UniProt P05545); assay: as above; format: in vivo; settings: rat liver, high doses
# T3 construct: The 2DGE protein pattern of rat liver illustrates over 1000 Coomassie Blue stained protein spots; from tissue; host or cells: liver (left apical lobe) of drug-fed F344 rats
# T3 sequence (P05545 21-416): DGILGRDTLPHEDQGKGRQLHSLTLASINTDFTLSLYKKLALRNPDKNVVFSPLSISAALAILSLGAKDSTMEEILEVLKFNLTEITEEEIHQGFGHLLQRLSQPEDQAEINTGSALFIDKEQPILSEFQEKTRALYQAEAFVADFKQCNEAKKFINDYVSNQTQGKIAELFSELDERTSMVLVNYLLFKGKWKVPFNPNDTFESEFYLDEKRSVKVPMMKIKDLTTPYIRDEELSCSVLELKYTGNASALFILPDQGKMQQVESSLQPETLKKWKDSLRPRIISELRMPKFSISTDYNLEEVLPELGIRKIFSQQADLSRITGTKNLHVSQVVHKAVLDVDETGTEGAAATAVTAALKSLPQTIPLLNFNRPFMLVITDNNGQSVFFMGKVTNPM
# Procedure: as §1, §2, §3, §4, §5
# [5] = Weight gain of treated rats; format: in vivo, rat; settings: high doses
# [6] = rat liver, 1500 ppm in feed for 7 days
structure (smiles),measurement,setting,value
"CC[C@H](C)C(=O)O[C@H]1C[C@@H](C)C=C2C=C[C@H](C)[C@H](CC[C@@H]3C[C@@H](O)CC(=O)O3)[C@H]21 [Mevacor ®, lovastatin]",annexin IV abundance,[1],dose-dependent increase
same,protein abundance changes in liver at low dose,[2]; 16 ppm in feed for 7 days,not of statistical significance
same,protein kinase C inhibitor abundance,[2]; rat liver,increased
same,"number of hepatic proteins with altered abundance, p<0.001",[2]; [6],32
same,"number of liver proteins with altered abundance, p<0.0001",[2]; [6],8
same,"number of liver proteins with altered abundance, p<0.005",[2]; [6],64
same,number of lost liver proteins,[2]; [6],one
same,number of new liver proteins,[2]; [6],1
same,number of liver proteins with altered abundance (total),"[2]; rat liver, two-tailed Student's t-test, 1500 ppm in feed for 7 days",66
same,23 kD morphine binding protein abundance,[3],increased
same,serine protease inhibitor 2 (SPI-2) abundance,[4],decrease
same,weight gain,[5],decrease

# Reference: patent US20060024234A1, “Protein markers for pharmaceuticals and related toxicity” (LARGE SCALE PROTEOMICS CORPORATION, A Division of Large …, priority 2000, published 2006)
